Source: article PMC11969438 (Inorganic Chemistry Frontiers, 2025)

Assays:
[1] = Reduction kinetics with 10 eq. L-ascorbic acid in phosphate buffer, UHPLC; assay type: physicochemical; conditions: 10 eq. AA, PB pH 7.4, 20 °C; for original compound left in presence of AA: after 5 h
Method: (§1) PB (150 mM, pH 7.4) containing 1 mM platinum compound was incubated at 20 °C, with and without the addition of 10 eq. of AA. The reaction was monitored using a Thermo Scientific Dionex UltiMate 3000 UHPLC system with a Waters Acquity UPLC BEH C18 1.7 μm 3.0 × 50 mm column. Milli-Q water containing 0.1% formic acid and acetonitrile containing 0.1% formic acid were used as eluents. A gradient of 5–95% over 5 min was used with a flow of 0.6 mL min^−1. To evaluate the current state of the reaction, the peak area of the parental complex was used.

[2] = Hydrolytic stability in phosphate buffer, UHPLC; assay type: physicochemical; conditions: 1 mM, 150 mM PB pH 7.4, 20 °C, over 5 h
Method: as §1

THP1-Dual cells [3] = assay: Intracellular platinum accumulation in vitro by ICP-MS; assay type: cell-based, human; conditions: 3 h exposure, compared to oxaliplatin
Method: The THP1-Dual cell model was seeded at 1 × 10^6 cells per well in six-well plates. After 24 h of recovery, the compounds were applied at the concentrations indicated in triplicate. After 3 h of drug exposure, the cells were prepared as published previously.[13] […] The lysate was filled up to 8 mL with water. The platinum concentration was determined by ICP-MS analysis. Platinum and rhenium standards were derived from CPI International (Amsterdam, the Netherlands). The total platinum content was determined with an Agilent 7800 quadrupole-based ICP-MS instrument (Agilent Technologies, Tokyo, Japan) equipped with an Agilent SPS 4 autosampler (Agilent Technologies, Tokyo, Japan) and a MicroMist nebulizer at a sample uptake rate of approximately 0.2 mL min^−1. […] Argon was used as a plasma gas (15 L min^−1) and as a carrier gas (∼1.1 L min^−1). The dwell time was set to 0.1 s and the measurements were performed in 12 replicates with 100 sweeps. Rhenium served as an internal standard for platinum.

[4] = system: IRF pathway (STING-dependent); assay: IRF-inducible luciferase reporter in THP1-Dual reporter cell model; assay type: cell-based, human; conditions: for EC50: 24 h exposure, normalized to cell viability, oxaliplatin in combinations 5 μM
Text: (§2) The THP1-Dual™ reporter cell model for simultaneously monitoring the activity of the IRF and NF-κB pathway contains an IRF-inducible luciferase reporter under the control of an ISG54 minimal promoter in conjunction with five interferon (IFN)-stimulated response elements, and an induced SEAP driven by an IFN-β minimal promoter fused to five copies of the NF-κB consensus transcriptional response element and three copies of the c-Rel binding site. The luciferase and SEAP reporter are measurable in the cell culture supernatant using QUANTI-Luc™ 4 Lucia/Gaussia (InvivoGen) and QUANTI-Blue™ (InvivoGen) solution, respectively. Cells were seeded at 1 × 10^5 cells per well in 96-well plates in RPMI-1640 medium, supplemented with 10% FCS, L-glutamine and Pen-Strep. After 2 h of recovery, the compounds were applied at the concentrations indicated in triplicate. The cell culture supernatant (SN) was collected after 24 h of drug incubation and secreted luciferase and SEAP reporter levels were measured according to the manufacturer's recommendations. In brief, for the detection of luciferase, 20 μL of SN were transferred into 96-well white opaque plates, and 30 μL of QUANTI-Luc™ reagent were added per well using an injector module in a multimode microplate reader (Tecan Spark, Zurich, Switzerland). Luminescence was recorded at a reading time of 0.1 second. For the detection of SEAP, 10 μL of SN were transferred to 96-well plates and 90 μL of QUANTI-Blue™ were added per well. Absorbance was measured at 620 nm. Half-maximal effective concentrations (EC50 values) were derived via interpolation from dose–response curves, modeled with the four-parameter logistic (4PL) nonlinear regression model in GraphPad Prism. For comparison, the maximal response rate of the prodrug was depicted in the percent of the maximal response rate achieved by SR-717 or MSA-2 (%EMAX) at the respective concentrations tested. Activatability, tested in co-incubation experiments with AA (50 μM), was expressed as the area under the curve (AUC) ratio of +AA vs. −AA-treated cells. The STING-dependency of the reporter induction was tested by co-administration of the STING inhibitor H-151 (10 μM), added to the cell culture medium 2 h before applying the investigated compounds. In addition to monitoring secreted reporter levels, the cell viability of the reporter cells was determined after 24 h of drug treatment by an MTT-based cell viability assay.

[5] = system: NF-κB pathway (STING-dependent); assay: NF-κB-inducible SEAP reporter in THP1-Dual reporter cell model; assay type: cell-based, human; conditions: for EC50: 24 h exposure, normalized to cell viability, oxaliplatin in combinations 5 μM
Text: as §2

[6] = system: THP1-Dual, HCT116, HCT116/OxR and CT-26 cells; assay: MTT-based cell viability assay, 72 h, statements over all investigated cell lines; set-up: species or system human and murine; conditions: none of the investigated cell lines vulnerable, read-out: IC50 of free single agent
Method: Cell models were seeded (2–2.5 × 10^3 cells per well) in 96-well plates. After 24 h of recovery, the compounds were applied at the concentrations indicated in triplicate. Cell viability was determined after 72 h of continuous drug incubation using an MTT-based cell viability assay (EZ4U, Biomedica, Vienna, Austria) according to the manufacturer's recommendations. Absorbance was measured at 450 nm (vs. 620 nm as reference) using a multimode microplate reader (Tecan Spark, Zurich, Switzerland). Half-maximal inhibitory concentrations (IC50 values) were derived via interpolation from dose–response curves, modeled with the four-parameter logistic (4PL) nonlinear regression model in GraphPad Prism (La Jolla, CA, USA) from at least three independent experiments.

THP1-Dual cells [7] = assay: Western blot analysis of STING downstream pathway, DNA damage and cell death markers; assay type: cell-based, human; conditions: 24 h
Method: The THP1-Dual cell model was seeded at 1 × 10^6 cells per well in six-well plates. After 24 h of recovery, the compounds were applied at the concentrations indicated. After 24 h of drug exposure, whole-cell protein isolation was performed as described previously.[14] Sodium dodecyl sulfate polyacrylamide gel electrophoresis was performed. Proteins were transferred onto polyvinylidene difluoride membranes (Thermo Scientific, Waltham, MA, USA). Antibodies targeting STING (##13 647; 1 : 1000), phospho-STING (#19 781; 1 : 500), TBK1 (#3504; 1 : 500), IRF-3 (#4302; 1 : 500), phospho-p65 (#3033; 1 : 500), ISG15 (#2743; 1 : 1000), caspase-3 (#9665; 1 : 1000), cleaved caspase-3 (#9661; 1 : 1000), PARP (#9532; 1 : 1000), and cleaved PARP (#9541; 1 : 1000) were purchased from Cell Signaling Technology (Danvers, MA, USA). The p65 antibody (#sc-372; 1 : 1000) was purchased from Santa Cruz and the phospho-H2A.X antibody (#05-636-I; 1 : 500) was obtained from Merck (Darmstadt, Germany). The anti-β-actin (#5441; 1 : 2000) antibody was obtained from Sigma-Aldrich. The anti-mouse IgG (#A0168; 1 : 10 000) horseradish peroxidase (HRP)-coupled secondary antibody was purchased from Sigma-Aldrich, and the anti-rabbit IgG (#7074; 1 : 5000) HRP-linked secondary antibody was obtained from Cell Signaling Technology.

THP1-Dual cells [8] = assay: Quantitative RT-PCR of target genes downstream of STING; assay type: cell-based, human; conditions: 24 h, prodrugs 100 μM, MSA-2 25 μM
Method: The THP1-Dual cell model was seeded at 1 × 10^6 cells per well in six-well plates. After 24 h of recovery, the compounds were applied at the concentrations indicated. After 24 h of drug exposure, total RNA was isolated using TRIzol reagent (Thermo Fisher Scientific, MA, USA), as described previously.[12] RNA was reverse transcribed into cDNA using RevertAid Reverse Transcriptase (Thermo Fisher Scientific). Real-time PCR was performed using the GoTaq® RT-qPCR system (Promega) with a CFX96 Touch Real-Time PCR Detection System (Bio-Rad Laboratories). Relative mRNA levels were quantified using the 2^−ddCT method.[54] RPL41 was used as a housekeeping gene. Human-specific primers were purchased from Eurofins Genomics (Ebersberg, Germany) with the following sequences: RPL41: fwd (5′-[…]-3′), rev (5′-[…]-3′); IFNB1: fwd (5′-CTTGGATTCCTACAAAGAAGCAGC-3′), rev (5′-[…]-3′); ISG15: fwd (5′-[…]-3′), rev (5′-[…]-3′); IFIT1: fwd (5′-[…]-3′), rev (5′-[…]-3′); CXCL10: fwd (5′-[…]-3′), rev (5′-[…]-3′); and CCL5: fwd (5′-[…]-3′), rev (5′-[…]-3′).

THP1-Dual cells [9] = assay: Cytokine and chemokine secretion in cell culture supernatant, Luminex; assay type: cell-based, human; conditions: 24 h, prodrug 100 μM, MSA-2 25 μM
Method: Quantification of secreted protein targets in either cell culture SN or in plasma of treated animals was performed using a ProcartaPlex (96-well) multiplex assay panel (Thermo Fisher Scientific) in the xMAP detection platform (Luminex). For the in vitro detection of secreted proteins, THP1-Dual cells were seeded at 1 × 10^5 cells per well in 96-well plates in RPMI-1640 medium, supplemented with 10% FCS, L-glutamine and Pen-Strep. After 24 h of recovery, the compounds were applied at the concentrations indicated in triplicate.
After 24 h of drug incubation, the cell culture SN of technical triplicate was collected, pooled, centrifuged (400g, 10 min, 4 °C), transferred into a fresh tube, and stored at −20 °C.
Next, the ProcartaPlex (96-well) multiplex assay panel was performed according to the manufacturer's recommendations. In brief, the capture bead mix was incubated with test samples (undiluted SN or mouse plasma) or standard mix overnight. The SN of three independent experiments or the plasma of four animals per treatment group was loaded onto the multiplex assay plate. Next, biotinylated detection antibody mix and Streptavidin-PE were added to the plate. Following the recommended washing steps, the samples were incubated in a reading buffer and were measured using a Luminex xMAP platform (Bio-Plex MAGPIX Multiplex Reader; Bio-Rad Laboratories) and analyzed using xPONENT software.

CT-26 tumors = assay: Anticancer efficacy in vivo, syngeneic colorectal carcinoma; set-up: species or system BALB/c mice; conditions: i.v. twice a week for two weeks, equimolar to 9 mg kg^−1 oxaliplatin
Method: Tumor size was determined daily via manual caliper measurement. […] Animals were euthanized via cervical dislocation.

[10] = 24 h, maximal response relative to SR-717
[11] = H-151 10 μM added 2 h before the compounds

SMILES: CC(=O)Nc1cc(F)c(F)cc1C(=O)[O][Pt-2]12([O]C(C)=O)([NH2+][C@@H]3CCCC[C@H]3[NH2+]1)[O]C(=O)C(=O)[O]2 [Ox-Bz-F2-NHAc]
- original compound left in presence of AA [1]: 40%

SMILES: COCCOCCOCCOCCC(=O)[O][Pt-2]12([O]C(=O)c3cc(F)c(F)cc3NC(=O)c3ccc(-n4ccnc4)nn3)([NH2+][C@@H]3CCCC[C@H]3[NH2+]1)[O]C(=O)C(=O)[O]2 [Ox-SR-PEG-Es]
- hydrolytic stability [2]: No significant hydrolysis
- original prodrug remaining in presence of AA ([1]; after ∼3 h): only traces
- cellular platinum accumulation (THP1-Dual cells [3]): significantly higher platinum levels compared to oxaliplatin
- IRF %EMAX of SR-717 [4, 10]: 66%
- EC50 [4]: 12.4 µM
- NF-κB %EMAX of SR-717 [5, 10]: 52%
- EC50 [5]: 35.1 µM

SMILES: CC(=O)[O][Pt-2]12([O]C(=O)c3ccc(F)c(F)c3)([NH2+][C@@H]3CCCC[C@H]3[NH2+]1)[O]C(=O)C(=O)[O]2 [Ox-Bz-F2]
- original compound left in presence of AA [1]: approximately 95%

SMILES: CC(=O)[O][Pt-2]12([O]C(=O)c3cc(F)c(F)cc3N)([NH2+][C@@H]3CCCC[C@H]3[NH2+]1)[O]C(=O)C(=O)[O]2 [Ox-Bz-F2-NH2]
- original compound left in presence of AA [1]: approximately 80%

SMILES: COc1cc2cc(C(=O)CCC(=O)O)sc2cc1OC [MSA-2]
- IC50 [6]: > 75 µM
- IRF EC50 ratio fold MSA-2 ([4]; 24 h): 1.0 fold
- activation of IRF signaling pathway ([4]; 24 h): robustly activated
- fold lower IRF-inducing activity compared to SR-717 ([4]; 24 h): ~3.1 fold
- IRF %EMAX of MSA-2 ([4]; 24 h, maximal response relative to MSA-2, highest tested dose 100 μM): 100%
- EC50 [4]: 9.1 µM
- impact of reducing conditions on IRF-induced reporter signal (AUC ratio +AA/−AA) ([4]; AA 50 μM): no notable modulation
- NF-κB EC50 ratio fold MSA-2 ([5]; 24 h): 1.0 fold
- activation of NF-κB signaling pathway ([5]; 24 h): robustly activated
- NF-κB %EMAX of MSA-2 ([5]; 24 h, maximal response relative to MSA-2): 100%
- EC50 [5]: 17.7 µM
- DNA damage (p-H2A.X upregulation, cleavage of caspase-3 and PARP) (THP1-Dual cells [7]): induced DNA damage
- induction of ISG15 (THP1-Dual cells [7]): triggered
- phosphorylation of NF-κB (p65) (THP1-Dual cells [7]): only detected in cells treated with MSA-2
- mRNA induction of immune response genes (IFN-β, ISG15, IFIT1, CXCL10, CCL5) (THP1-Dual cells [8]): distinctly induced
- secretion of cytokines and chemokines (THP1-Dual cells [9]): induced distinct secretion of cytokines and chemokines
- tumor growth (CT-26 tumors): significantly inhibited malignant growth

SMILES: CCc1ccc(NC(=O)Nc2c[nH]c3ccccc23)cc1 [H-151]
- effect on agonist- and prodrug-induced IRF reporter signal [4, 11]: completely abolished
- effect on agonist- and prodrug-induced NF-κB reporter signal [5, 11]: completely abolished

SMILES: CC(=O)[O][Pt-2]12([O]C(=O)c3ccccc3)([NH2+][C@@H]3CCCC[C@H]3[NH2+]1)[O]C(=O)C(=O)[O]2 [Ox-Bz]
- original compound left in presence of AA [1]: approximately 95%
